Test system: recombinant NL4-3 virus (Renilla luciferase in nef, Gag P373S)
Assay: HIV Cell Culture Assay (luciferase reporter virus in MT-2 cells)
Assay type: cell-based
Conditions: NL43, read-out: EC50 Group
Summary of the method: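 Cells grown in serum-supplemented RPMI were exposed to graded inhibitor concentrations during a 4-5 day infection. Antiviral effect was then derived from luminescence after adding a combined lysis and dual-luciferase substrate mixture to each well.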

| Structure (SMILES) | EC50 |
| --- | --- |
| C=C(C)[C@@H]1CC[C@]2(C(=O)NCCc3ccc(OC)cc3)CC[C@]3(C)[C@H](CC[C@@H]4[C@@]5(C)CC=C(c6ccc(C(=O)O)cc6)C(C)(C)[C@@H]5CC[C@]43C)[C@@H]12 [Example 4, 4-((1R,3aS,5aR,5bR,7aR,11aS,11bR,13aR,13bR)-3a-(4-methoxyphenethylcarbamoyl)-5a,5b,8,8,11a-pentamethyl-1-(prop-1-en-2-yl)-2,3,3a,4,5,5a,5b,6,7,7a,8,11,11a,11b,12,13,13a,13b-octadecahydro-1H-cyclopenta[a]chrysen-9-yl)benzoic acid] | < 100 nM |
| C=C(C)[C@@H]1CC[C@]2(C(=O)NCc3nc4ccccc4[nH]3)CC[C@]3(C)[C@H](CC[C@@H]4[C@@]5(C)CC=C(c6ccc(C(=O)O)cc6)C(C)(C)[C@@H]5CC[C@]43C)[C@@H]12 [Example 40, 4-((1R,3aS,5aR,5bR,7aR,11aS,11bR,13aR,13bR)-3a-((1H-benzo[d]imidazol-2-yl)methylcarbamoyl)-5a,5b,8,8,11a-pentamethyl-1-(prop-1-en-2-yl)-2,3,3a,4,5,5a,5b,6,7,7a,8,11,11a,11b,12,13,13a,13b-octadecahydro-1H-cyclopenta[a]chrysen-9-yl)benzoic acid] | < 100 nM |
| C=C(C)[C@@H]1CC[C@]2(C(=O)NCCCN3CCS(=O)(=O)CC3)CC[C@]3(C)[C@H](CC[C@@H]4[C@@]5(C)CC=C(c6ccc(C(=O)O)cc6)C(C)(C)[C@@H]5CC[C@]43C)[C@@H]12 [Example 85, 4-((1R,3aS,5aR,5bR,7aR,11aS,11bR,13aR,13bR)-3a-((3-(1,1-dioxido-4-thiomorpholinyl)propyl)carbamoyl)-1-isopropenyl-5a,5b,8,8,11a-pentamethyl-2,3,3a,4,5,5a,5b,6,7,7a,8,11,11a,11b,12,13,13a,13b-octadecahydro-1H-cyclopenta[a]chrysen-9-yl)benzoic acid] | < 100 nM |
| C=C(C)[C@@H]1CC[C@]2(C(=O)NCCNc3ccccc3)CC[C@]3(C)[C@H](CC[C@@H]4[C@@]5(C)CC=C(c6ccc(C(=O)O)cc6)C(C)(C)[C@@H]5CC[C@]43C)[C@@H]12 [Example 110, 4-((1R,3aS,5aR,5bR,7aR,11aS,11bR,13aR,13bR)-5a,5b,8,8,11a-pentamethyl-3a-(2-(phenylamino)ethylcarbamoyl)-1-(prop-1-en-2-yl)-2,3,3a,4,5,5a,5b,6,7,7a,8,11,11a,11b,12,13,13a,13b-octadecahydro-1H-cyclopenta[a]chrysen-9-yl)benzoic acid] | < 100 nM |
| C=C(C)[C@@H]1CC[C@]2(C(=O)Nc3ncc(C)s3)CC[C@]3(C)[C@H](CC[C@@H]4[C@@]5(C)CC=C(c6ccc(C(=O)O)cc6)C(C)(C)[C@@H]5CC[C@]43C)[C@@H]12 [Example 48, 4-((1R,3aS,5aR,5bR,7aR,11aS,11bR,13aR,13bR)-5a,5b,8,8,11a-pentamethyl-3a-(5-methylthiazol-2-ylcarbamoyl)-1-(prop-1-en-2-yl)-2,3,3a,4,5,5a,5b,6,7,7a,8,11,11a,11b,12,13,13a,13b-octadecahydro-1H-cyclopenta[a]chrysen-9-yl)benzoic acid] | < 100 nM |
| C=C(C)[C@@H]1CC[C@]2(C(=O)NCCN3CCS(=O)(=O)CC3)CC[C@]3(C)[C@H](CC[C@@H]4[C@@]5(C)CC=C(c6cc(F)c(C(=O)O)c(F)c6)C(C)(C)[C@@H]5CC[C@]43C)[C@@H]12 [Example 121, 4-((1R,3aS,5aR,5bR,7aR,11aS,11bR,13aR,13bR)-3a-((2-(1,1-dioxido-4-thiomorpholinyl)ethyl)carbamoyl)-1-isopropenyl-5a,5b,8,8,11a-pentamethyl-2,3,3a,4,5,5a,5b,6,7,7a,8,11,11a,11b,12,13,13a,13b-octadecahydro-1H-cyclopenta[a]chrysen-9-yl)-2,6-difluorobenzoic acid] | < 100 nM |
| C=C(C)[C@@H]1CC[C@]2(C(=O)NS(=O)(=O)C3CC3)CC[C@]3(C)[C@H](CC[C@@H]4[C@@]5(C)CC=C(c6ccc(C(=O)O)cc6)C(C)(C)[C@@H]5CC[C@]43C)[C@@H]12 [Example 6, 4-((1R,3aS,5aR,5bR,7aR,11aS,11bR,13aR,13bR)-3a-(cyclopropylsulfonylcarbamoyl)-5a,5b,8,8,11a-pentamethyl-1-(prop-1-en-2-yl)-2,3,3a,4,5,5a,5b,6,7,7a,8,11,11a,11b,12,13,13a,13b-octadecahydro-1H-cyclopenta[a]chrysen-9-yl)benzoic acid] | < 100 nM |
| C=C(C)[C@@H]1CC[C@]2(C(=O)NCCN(CC)CCO)CC[C@]3(C)[C@H](CC[C@@H]4[C@@]5(C)CC=C(c6ccc(C(=O)O)cc6)C(C)(C)[C@@H]5CC[C@]43C)[C@@H]12 [Example 72, 4-((1R,3aS,5aR,5bR,7aR,11aS,11bR,13aR,13bR)-3a-(2-(ethyl(2-hydroxyethyl)amino)ethylcarbamoyl)-5a,5b,8,8,11a-pentamethyl-1-(prop-1-en-2-yl)-2,3,3a,4,5,5a,5b,6,7,7a,8,11,11a,11b,12,13,13a,13b-octadecahydro-1H-cyclopenta[a]chrysen-9-yl)benzoic acid] | < 100 nM |
| CC1(C)CC[C@]2(C(=O)NCCCN3CCS(=O)(=O)CC3)CC[C@]3(C)C(=CC[C@@H]4[C@@]5(C)CC=C(c6ccc(C(=O)O)cc6)C(C)(C)[C@@H]5CC[C@]43C)[C@@H]2C1 [Example B2, 4-((4aR,6aR,6bS,8aS,12aS,14aR,14bS)-8a-((3-(1,1-dioxido-4-thiomorpholinyl)propyl)carbamoyl)-4,4,6a,6b,11,11,14b-heptamethyl-1,4,4a,5,6,6a,6b,7,8,8a,9,10,11,12,12a,14,14a,14b-octadecahydro-3-picenyl)benzoic acid] | < 100 nM |
| C=C(C)[C@@H]1CC[C@]2(C(=O)NCC(O)CN)CC[C@]3(C)[C@H](CC[C@@H]4[C@@]5(C)CC=C(c6ccc(C(=O)O)cc6)C(C)(C)[C@@H]5CC[C@]43C)[C@@H]12 (stereo partly drawn) [Example 64, 4-((1R,3aS,5aR,5bR,7aR,11aS,11bR,13aR,13bR)-3a-(3-amino-2-hydroxypropylcarbamoyl)-5a,5b,8,8,11a-pentamethyl-1-(prop-1-en-2-yl)-2,3,3a,4,5,5a,5b,6,7,7a,8,11,11a,11b,12,13,13a,13b-octadecahydro-1H-cyclopenta[a]chrysen-9-yl)benzoic acid] | < 100 nM |
| CC(C)[C@@H]1CC[C@]2(C(=O)NCCc3ccccn3)CC[C@]3(C)[C@H](CC[C@@H]4[C@@]5(C)CC[C@H](c6ccc(C(=O)O)cc6)C(C)(C)[C@@H]5CC[C@]43C)[C@@H]12 [Example 54, 4-((1S,3aS,5aR,5bR,7aS,9S,11aS,11bR,13aR,13bR)-1-isopropyl-5a,5b,8,8,11a-pentamethyl-3a-(2-(pyridin-2-yl)ethylcarbamoyl)icosahydro-1H-cyclopenta[a]chrysen-9-yl)benzoic acid] | < 100 nM |
| C=C(C)[C@@H]1CC[C@]2(C(=O)NS(=O)(=O)N(C)C)CC[C@]3(C)[C@H](CC[C@@H]4[C@@]5(C)CC=C(c6ccc(C(=O)O)cc6)C(C)(C)[C@@H]5CC[C@]43C)[C@@H]12 [Example 7, 4-((1R,3aS,5aR,5bR,7aR,11aS,11bR,13aR,13bR)-3a-(N,N-dimethylsulfamoylcarbamoyl)-5a,5b,8,8,11a-pentamethyl-1-(prop-1-en-2-yl)-2,3,3a,4,5,5a,5b,6,7,7a,8,11,11a,11b,12,13,13a,13b-octadecahydro-1H-cyclopenta[a]chrysen-9-yl)benzoic acid] | < 100 nM |
| C=C(C)[C@@H]1CC[C@]2(C(=O)NCCN(CCC)CCC(=O)O)CC[C@]3(C)[C@H](CC[C@@H]4[C@@]5(C)CC=C(c6ccc(C(=O)O)cc6)C(C)(C)[C@@H]5CC[C@]43C)[C@@H]12 [Example 93, 4-((1R,3aS,5aR,5bR,7aR,11aS,11bR,13aR,13bR)-3a-(2-((2-carboxyethyl)(propyl)amino)ethylcarbamoyl)-5a,5b,8,8,11a-pentamethyl-1-(prop-1-en-2-yl)-2,3,3a,4,5,5a,5b,6,7,7a,8,11,11a,11b,12,13,13a,13b-octadecahydro-1H-cyclopenta[a]chrysen-9-yl)benzoic acid] | < 100 nM |
| C=C(C)[C@@H]1CC[C@]2(C(=O)NCC(N)=O)CC[C@]3(C)[C@H](CC[C@@H]4[C@@]5(C)CC=C(c6ccc(C(=O)O)cc6)C(C)(C)[C@@H]5CC[C@]43C)[C@@H]12 [Example 34, 4-((1R,3aS,5aR,5bR,7aR,11aS,11bR,13aR,13bR)-3a-(2-amino-2-oxoethylcarbamoyl)-5a,5b,8,8,11a-pentamethyl-1-(prop-1-en-2-yl)-2,3,3a,4,5,5a,5b,6,7,7a,8,11,11a,11b,12,13,13a,13b-octadecahydro-1H-cyclopenta[a]chrysen-9-yl)benzoic acid] | < 100 nM |
| C=C(C)[C@@H]1CC[C@]2(C(=O)NCCCN(C)C)CC[C@]3(C)[C@H](CC[C@@H]4[C@@]5(C)CC=C(c6ccc(C(=O)O)cc6)C(C)(C)[C@@H]5CC[C@]43C)[C@@H]12 [Example 27, 4-((1R,3aS,5aR,5bR,7aR,11aS,11bR,13aR,13bR)-3a-(3-(dimethylamino)propylcarbamoyl)-5a,5b,8,8,11a-pentamethyl-1-(prop-1-en-2-yl)-2,3,3a,4,5,5a,5b,6,7,7a,8,11,11a,11b,12,13,13a,13b-octadecahydro-1H-cyclopenta[a]chrysen-9-yl)benzoic acid] | < 100 nM |
| C=C(C)[C@@H]1CC[C@]2(C(=O)NCCN(CCC(=O)O)CCC(=O)O)CC[C@]3(C)[C@H](CC[C@@H]4[C@@]5(C)CC=C(c6ccc(C(=O)O)cc6)C(C)(C)[C@@H]5CC[C@]43C)[C@@H]12 [Example 90, 3,3′-(2-((1R,3aS,5aR,5bR,7aR,11aS,11bR,13aR,13bR)-9-(4-carboxyphenyl)-5a,5b,8,8,11a-pentamethyl-1-(prop-1-en-2-yl)-2,3,3a,4,5,5a,5b,6,7,7a,8,11,11a,11b,12,13,13a,13b-octadecahydro-1H-cyclopenta[a]chrysene-3a-carboxamido)ethylazanediyl)dipropanoic acid] | > 100 nM |
